The NIST ThermoML archive (doi:10.1021/acs.jced.8b01135)

Assay: xn = mol fraction of the nth substance listed
Conditions: 102 kPa, Liquid; for mass density: Vibrating tube method; for viscosity: Concentric cylinders viscometry; for speed of sound: Frequency=3 MHz, Single path-length method

CCCCCCCC1CCCCC1 [heptylcyclohexane] + CCCCCCCCCCCC
Conditions	mass density, 303.15 K [kg/m3]	mass density, 313.15 K [kg/m3]	mass density, 323.15 K [kg/m3]	mass density, 333.15 K [kg/m3]	speed of sound, 313.15 K [m/s]	speed of sound, 323.15 K [m/s]	speed of sound, 333.15 K [m/s]	viscosity, 313.15 K [mPa·s]	viscosity, 323.15 K [mPa·s]	viscosity, 333.15 K [mPa·s]
x1 = 0.1002	–	740.48	733.2	725.89	1228.4	1191.3	1155.3	1.13	0.976	0.851
x1 = 0.201	–	746.79	739.54	732.26	1236.2	1199.2	1163.2	1.19	1.02	0.891
x1 = 0.3	–	753.05	745.82	738.56	1244.2	1207.3	1171.2	1.25	1.08	0.933
x1 = 0.3998	–	759.25	752.06	744.84	1251.2	1214.3	1178.5	1.32	1.13	0.977
x1 = 0.5002	–	765.6	758.43	751.23	1259.6	1222.8	1186.8	1.39	1.19	1.03
x1 = 0.5999	778.98	771.86	764.71	757.54	1267.3	1230.6	1194.6	1.47	1.25	1.08
x1 = 0.6998	785.18	778.09	770.98	763.84	1274.6	1238	1202.4	1.54	1.32	1.14
x1 = 0.8001	791.51	784.43	777.34	770.22	1283	1246.3	1210.5	1.63	1.38	1.18
x1 = 0.8998	797.69	790.64	783.57	776.49	1290.5	1253.9	1218.5	1.73	1.45	1.23
x1 = 1	803.98	796.95	789.91	782.85	1298.8	1262.2	1226.7	1.85	1.55	1.31
